# Test results: patent publication US6664271B1, “Immunopotentiator agents” (Eli Lilly and Company, priority 1999, dated 2003)
# Marks after values point to notes of the source that are not given here.
# What was measured:
# mononuclear leukocytes [1] = experiment: mammalian T-lymphocyte blastogenesis assay, porcine (Example 75); type: cell-based
# Protocol: (§1) The compound prepared in Example 30, namely (S)-ethyl 1-(2-thiopheneacetyl)-3-peridinecarboxylate, was further evaluated for in vitro T-lymphocyte blastogenic activity from mammalian species other than avian.
# (§2) The mammalian blastogenesis assays were conducted with the same protocol as the vian assays with the following exceptions:
# (§3) 1. Only mononuclear leukocytes are used for the mammalian assay. The cells are obtained from whole blood by differential centrifugation using Histopague 1.077 (Sigma Chemical Company, St. Louis, Mo).
# (§4) 2. 0.5% Fetal Bovine Serum (FBS) [GIBCOBRL, Grand Island N.Y.] is added to RPMI 1640 medium. Exception: Non-human primate plasma is used instead of FBS at 5 ml/liter to RPMI 1640 medium.
# (§5) 3. 5×10^5 cells/well were used with the mammalian assays.
# E. coli 19B = experiment: bacterial clearance of E. coli from peripheral blood of neonatal chicks (Example 77); type: in vivo, chick; settings: single subcutaneous injection of 25 μg, E. coli challenge, blood 14-18 hours post-challenge
# Protocol: The compounds of Example 15 ((S)-ethyl 1-benzoyl-3-piperidinecarboxylate), Example 29 (1-benzoyl-3-butyrylpiperidine), Example 30 ((S)-ethyl 1-(2-thiopheneacetyl)-3-piperidinecarboxylate) and Example 68 ((S)-ethyl 1-benzyl-3-piperidinecarboxylate 1-methiodide), respectively, were tested to determine whether a single subcutaneous injection enhanced the bacterial clearance of E. coli from the peripheral blood of neonatal chicks. Bacterial clearance is a measurement of cell-mediated immunity, specifically, phagocyte function, in animals. An approved Animal Care and Use Committee protocol governed the activity in this experiment.
# 1 ml syringes with 21 g 1″ needles (Becton Dickinson and Company Franklin Lakes, N.J. 07417-1884); 1 ml syringe with 25 g ⅝″ needles (Becton Dickinson and Company Franklin Lakes, N.J. 07417-1884); EMB agar plates (Difco Laboratories, Becton Dickinson Microbiology Systems, Sparks, Md. 21152); Culture tubes (14 ml polystyrene round bottom, Becton Dickinson Labware, Franklin Lakes, N.J. 07417-1886); Dulbecco's Phosphate Buffered Saline w/o Mg^++ or Ca^++ (Gibco BRL, Life Technologies Rockville, Md. 20850). Peterson x Hubbard male chicks (day of hatch from a commercial hatchery) were utilized
# 160 chicks were divided into 6 groups: Group 1=Controls (acetate-buffered saline vehicle); Group 2=Compound of Example 15 ((S)-ethyl 1-benzoyl-3-piperidinecarboxylate); Group 3=Compound of Example 29 (1-benzoyl-3-butyrylpiperidine); Group 4=Compound of Example 30 ((S)-ethyl 1-(2-thiopheneacetyl)-3-piperidinecarboxylate); Group 5=Compound of Example 68 ((S)-ethyl 1-benzyl-3-piperidinecarboxylate 1-methiodide); and Group 6=environmental controls. Groups 1-5 contained 3 replicates of 10 chicks each and Group 6 contained 1 replicate of 10 chicks.
# Day −2 Upon arrival, day of hatch chicks were randomized (10/group), and placed in a Petersime heated brooder battery unit (Petersime Incubator Company, Gettysburg, Ohio 45328). […] All chicks were given ad libitum access to a commercially available starter feed and water.
# Day 0 11:00 AM. Five to ten colonies of E. coli 19B were selected from a fresh overnight blood agar plate (TSA II with 5% sheep blood, Becton Dickinson Microbiology Systems Cockeysville, Md. 21030) and placed into 100 ml Brain Heart Infusion broth (Difco Laboratories, Becton Dickinson Microbiology Systems Sparks, Md. 21152) in a flask. […]
# Day 5 EMB plates were removed from the incubator and bacterial colonies were counted and recorded to calculate CFU/ml/chick.
# Data was transformed to logio values, and analysis of variance was used to determine significant differences between the treatment groups and controls. Data was expressed as the percentage of enhancedbacterial clearance compared to E. coli-challenged controls. […]
# mononuclear leukocytes [2] = experiment: mammalian T-lymphocyte blastogenesis assay, non-human primate (Example 75); type: cell-based
# Protocol: as §1, §2, §3, §4, §5
compound,measurement,setting,value
"CCOC(=O)[C@H]1CCCN(C(=O)Cc2cccs2)C1 [Example 30, (S)-Ethyl 1-(2-Thiopheneacetyl)-3-piperidinecarboxylate]",MSC,mononuclear leukocytes [1],10 μg μg/ml
same,MTC,mononuclear leukocytes [1],1 mg/mL
same,% Enhanced Clearance Compared to Controls,E. coli 19B,61* %
same,MSC,mononuclear leukocytes [2],10 μg μg/ml
same,MTC,mononuclear leukocytes [2],1 mg/mL
